Results taken from PMC10726355, “Small Molecule Ligands of the BET-like Bromodomain, SmBRD3, Affect Schistosoma mansoni Survival, Oviposition, and Development” (Journal of Medicinal Chemistry, 2023).
Converted amounts (≈) assume the structure as drawn. “Also recorded” adds a separate entry of the source. Like-named read-outs stand apart in the source and are kept apart here.

Experiments:
SmBRD3(2) = SmBRD3(2) (Schistosoma mansoni, UniProt A0A5K4ESD7); experiment: biochemical; type: binding
S. mansoni schistosomula = experiment: Ex vivo schistosomula screening (Roboworm high content imaging); parameters: species or system Schistosoma mansoni; settings: 72 h; for EC50: Schistosoma mansoni, ethyl esters (R=Et), 95% CI in brackets
Description: A high-throughput imaging platform that quantifies both phenotype and motility ex vivo, was used to screen compounds against schistosomula; their effects were assessed as previously described.[20] Briefly, the schistosomula stage of S. mansoni was obtained by mechanical transformation of cercariae, dispensed into 384-well tissue culture plates, and dosed with 20 μM (Figure 7) or 10 μM (Figure S48) of each compound. Following 72 h coincubation of the schistosomula and compound, the plate was subjected to high content imaging to quantify the effects of each compound.
S. mansoni schistosomula were obtained by mechanical transformation from cercariae as previously described,[64] distributed in 384-well tissue culture plates (PerkinElmer, catalogue number 6007460) at 120 parasites/well and dosed with the selected compounds as previously reported.[65]−[68] For this study, each compound (as 10 mM DMSO stock solution) was initially tested at two concentration points (20 and 10 μM final concentration, in duplicates) in at least four independent screens (Z′ scores above 0.35).[69] Each screen contained both positive (10 μM auranofin (AUR) in 0.625% DMSO) and negative (0.625% DMSO) controls. […] Following 72 h schistosomula/compound coincubation, the plate was analyzed by the Roboworm platform.[70] EC50 values were calculated from the titrated concentrations by nonlinear regression, after log transformation of concentrations and data normalization using GraphPad Prism 7.02.

S. mansoni adult worms = experiment: Ex vivo adult worm screening (motility, IVLEs, pairing); parameters: species or system Schistosoma mansoni; settings: 72 h
Description: S. mansoni adult worms were recovered by hepatic portal vein perfusion from TO mice (Mus musculus HsdOLa:TO - Tuck Ordinary; Envigo, UK) that were percutaneously infected 7 weeks earlier with 180 cercariae.[65],[71] Following perfusion, schistosomes were washed and processed as previously described.[65],[66] Subsequently, schistosome pairs were seeded into 48 well tissue culture plates (1 worm pair/well, in duplicate) and dosed with the compounds (20 μM in 0.2% DMSO). DMSO (0.2%) and praziquantel (10 μM in 0.1% DMSO) were also included as negative and positive controls, respectively. Parasite motility was assessed by a digital image processing-based system (WormassayGP2),[66] modified after Wormassay.[72]In vitro laid eggs (IVLEs) were enumerated and the presence or absence of paired worms was noted.

S. mansoni miracidia = experiment: Ex vivo miracidia to sporocyst transformation screening; parameters: species or system Schistosoma mansoni; settings: 48 h; for Effect on miracidia to sporocyst transformation: 26 °C
Description: S. mansoni miracidia were obtained by hatching of schistosome eggs as previously described.[73] The resulting miracidial suspension was collected, washed with Chernin’s balanced salt solution (CBSS),[73] and enumerated prior to being used for ex vivo miracidia to sporocyst screens as previously reported.[66],[73] Each compound was tested at 0.5, 2.0, 5.0, 10, and 25 μM final concentrations (in 1% DMSO). Each treatment was set up in duplicate (15–25 miracidia/well). Each titration was performed in three independent experiments (two technical replicates per data point). Parasites cultured in CBSS (containing 1% DMSO) were included as negative controls. After 48 h incubation at 26 °C in the dark, dead, fully transformed and partially transformed miracidia were enumerated as previously described.[74],[75]

CAD solubility assay = type: physicochemical; settings: phosphate buffered saline, pH 7.4, phosphate buffered saline at pH 7.4; read-out: Aqueous Solubility by CAD
Description: A CAD solubility assay was carried out by Physchem Team, Discovery Analytical, NCE Molecular Discovery at GSK. 5 μL of 10 mM DMSO stock solution was diluted to 100 μL with pH 7.4 phosphate buffered saline, equilibrated for 1 h at room temperature, and filtered through Millipore MultiscreenHTS-PCF filter plates (MSSL BPC). The filtrate was quantified using a suitably calibrated charged aerosol detector.[45]

chromLogD assay = type: physicochemical; settings: reversed phase HPLC column (Gemini NX C18), pH 7.4
Description: Lipophilicity: a chromLogD assay was carried out by the Physchem Team, Discovery Analytical, NCE Molecular Discovery at GSK. The chromatographic hydrophobicity index (CHI)[46],[47] values were measured using reversed phase HPLC column (50 × 2 mm […] Gemini NX C18, Phenomenex, UK) with fast acetonitrile gradient at starting mobile phase of pHs 2, 7.4, or 10.5. CHI values were derived directly from the gradient retention times using calibration parameters for standard compounds. The CHI value approximates to the volume % organic concentration when the compound elutes. CHI was linearly transformed into a chromLogD[48] value by least-squares fitting of experimental CHI values to calculated cLogP values for over 20000 research compounds.

adult male S. mansoni = experiment: Determination of compound parasite permeability (LCMS of worm lysate); type: in vitro ADME, Schistosoma mansoni
[1] = Compound conversion in media with or without worms (LCMS); type: in vitro ADME; settings: media in the presence or absence of worms; 20 μM; 24 h
Description: As the low solubility of the ethyl ester derivatives prevented us from determining their affinity for SmBRD3(2) using ITC, it is possible that these compounds are themselves inhibitors of SmBRD3(2). Alternatively, the ethyl esters could function as pro-drugs that release the corresponding acid in the parasite. To investigate compound permeability, adult worms were treated with 20 μM of the acid 15 or the ethyl ester 22 for 24 h, and then the media exchanged three times. The worms were then lysed and the levels of the acid 15 or the ethyl ester 22 were determined using LCMS (Figure S50).
Figure S-52. A. Estimation of the concentration of 15 and 22 in media after incubation with 22 in the presence and absence of S. mansoni. The concentration estimations were calculated as an average (presence of worm n=3, no worm n=2) from the analysis media in the presence (5 worms per well) or absence of worms, with error bars representing the s.e.m. B. Estimation of the concentration of 1 and 2 in media after incubation with 2 in the presence and absence of S. mansoni. The concentration estimations were calculated as an average (presence of worm n=2, no worm n=1) from the analysis of media in the presence (5 worms per well) or absence of worms with error bars representing the […]

SmBRD3(1,2) [2] = target: SmBRD3(1,2) (Schistosoma mansoni, UniProt A0A5K4ESD7); experiment: biochemical; type: binding; settings: for N number, binding to SmBRD3(1,2): ITC stoichiometry, n=1 ± error of curve fit
SmBRD3(1,2) [3] = experiment: Differential scanning fluorimetry (thermal shift), SmBRD3(1,2); settings: DSF; 50 μM compound
Description: Reported ΔTm values are the mean of two replicates.
The differential scanning fluorimetry (DSF) or thermal stability assays were carried out following the protocol described by Niesen et al. and data were analysed as described previously.8 Thermal melting experiments were carried out using the Mx3005p real-time PCR machine (Agilent) and employing a protein concentration of 5 μM for the schistosomal bromodomains [SmBRD3(2),
the DMSO content was 0.5% (v/v). Buffer conditions were 50 mM HEPES buffer, pH 7.5, 500 mM NaCl and a 1:500 dilution of SYPRO® Orange (Invitrogen, CA) was used. The 96-well PCR plates were sealed and centrifuged for 2 min at 1000 rpm at 25 °C before measurement. The temperature was raised with a step of 1 °C per 30 s from 25 °C to 85 °C, and fluorescence readings were taken
difference between the transition midpoints of sample and reference wells containing protein without inhibitor in the same plate. Reported ΔTm values are the mean of two replicates.
Isothermal titration calorimetry experiments were performed on a MicroCal PEAQ-ITC Automated or Manual (Malvern) and analysed with the MicroCal PEAQ-ITC Analysis software (Malvern 1.1.0.1262) using a single binding site model. For each experiment, the first data point was removed from the analysis. The proteins were dialysed at 4 °C overnight in a Slide-A-LyzerR MINI Dialysis Device (2000 MWCO; Thermo Scientific Life Technologies) into 50 mM HEPES, 150 mM NaCl containing 0.2% DMSO; pH 7.4. Proteins were centrifuged to remove aggregates (3 min, 3000 rpm, 25 °C).
Compounds were dissolved as a DMSO stock solution and diluted to the required concentration using dialysis buffer (DMSO free) and to a final DMSO concentration of 0.2% (unless otherwise specified). The cell was stirred at 750 rpm, reference power set to 5 μcal/s and temperature held at 25 °C. After an initial delay of 60 s, 19 x 2 μL injections (first injection 0.4 μL) were performed with a spacing of 180 s. […]

[4] = 20 μM (Figure 7) or 10 μM (Figure S48)
[5] = SmBRD3(1,2) Kd, ITC, n = 1 ± error of the curve fit
[6] = ITC, single run ± error of curve fit, Repeat 1
[7] = ITC, single value ± error of the curve fit or mean of 2-3 repeats ± s.e.m.

Compound	SmBRD3(2) Kd (SmBRD3(2))	SmBRD3(2) Kd, Repeat 1 (SmBRD3(2))	Effect on schistosomula phenotype (S. mansoni schistosomula; [4])	Effect on miracidia to sporocyst transformation (S. mansoni miracidia; 0.5-25 μM in 1% DMSO)	Conversion in media (ester hydrolysis / deacetylation) [1]	N number, binding to SmBRD3(1,2) (SmBRD3(1,2) [2])	Kd (SmBRD3(1,2) [2]; [5]) [nM]	Kd (SmBRD3(1,2) [2]; SmBRD3(1,2) pKd, ITC) [nM]	SmBRD3(2) Kd, Repeat 1 (SmBRD3(2); [6])	SmBRD3(2) Kd (SmBRD3(2); [7])	Thermal stabilisation (ΔTm) of SmBRD3(1,2) (SmBRD3(1,2) [3])	also measured
CCOC(=O)c1ccc(-c2ccc3c(c2)[C@H](Nc2ccc4ncccc4c2)C[C@H](C)N3C(C)=O)cc1 [Compound 22, Ethyl 4-{(2S,4R)-1-Acetyl-2-methyl-4-[(quinolin-6-yl)amino]-1,2,3,4-tetrahydroquinolin-6-yl}benzoate]	No binding	No binding	greatest effects; also recorded: strong effects	concentration-dependent inhibition; also recorded: substantial and concentration-dependent effect	some ester hydrolysis	–	–	–	–	–	–	Antischistosomula activity at 10 μM (S. mansoni schistosomula; 10 μM): active; Effect on schistosomula motility (S. mansoni schistosomula; [4]): greatest effects; also recorded: strong effects; EC50 (S. mansoni schistosomula; read-out: Schistosomla Movement EC50): 3300 nM; EC50 (S. mansoni schistosomula; read-out: Schistosomla Phenotype EC50): 1110 nM; Effect on adult worm movement (S. mansoni adult worms; 20 μM in 0.2% DMSO): substantial effects; also recorded: reduced; Effect on egg count (in vitro laid eggs) (S. mansoni adult worms; 20 μM): reduced; Effect on worm pairing (S. mansoni adult worms; 20 μM): reduced; Concentration at which the majority of miracidia were prevented from transforming into sporocysts (S. mansoni miracidia): 2.00 µM; solubility at 1 h (CAD solubility assay): 13 µM (≈ 6.23 µg/mL); chromatographic logD (chromLogD assay): 5.95; Worm permeability (adult male S. mansoni; adult worms, 20 μM, 24 h): high worm permeability; Conversion of ester to acid 15 in the worm (adult male S. mansoni; worms treated with 20 μM for 24 h, LCMS): can be converted from the ester to the acid in the worm; Quantity of compound found in lysed adult worms (adult male S. mansoni; worms treated with 20 μM of the same compound for 24 h, LCMS): High quantities
Cc1noc(C)c1-c1cc(O)cc(C(O)c2ccccc2)c1 (stereo not drawn) [OXFBD02 (1), OXFBD02, reference compound]	–	–	–	modest effects	–	1.61 ± 3.3e-2	683 ± 166	631	No binding	no binding detected; also recorded: No detectable binding	stabilize SmBRD3(1,2)	–
CC(=O)Oc1cc(-c2c(C)noc2C)cc(C(O)c2ccccc2)c1 (stereo not drawn) [OXFBD03 (2), OXFBD03, reference compound]	–	–	–	–	rapidly deacetylated	1.17 ± 1.7e-2	675 ± 97.6	631	No binding	No detectable binding	–	–
(+)-JQ1 [(+)-JQ1 (5), reference compound]	no binding detected; also recorded: No detectable binding	No binding	showed activity	–	–	3.87 ± 7.0 e-2	–	–	–	–	stabilize SmBRD3(1,2)	SmBRD3(1,2) pKd (SmBRD3(1,2) [2]; ITC): 6.4; Kd (SmBRD3(1,2) [2]; ITC, n = 1 ± error of the curve fit, read-out: SmBRD3(1,2) Kd): 445 ± 106 nM; Toxicity to miracidia (dead parasites) (S. mansoni miracidia; 0.5-25 μM in 1% DMSO): toxic at the higher concentrations
